Tests used:
AChE [1] = biological target: T1, AChE (Homo sapiens, UniProt P22303); assay: biochemical; conditions: for IC50: Ellman method, 30 °C, 25 min, pH 8.0, mean ± SD; for Selectivity for AChE, IC50 (BChE)/IC50 (AChE): ratio IC50 (BChE)/IC50 (AChE)
Description: (§1) AChE/BChE activity assays were carried out by Ellman method with slight modification. Each compound was dissolved in Tween 80 and diluted with water to various concentrations immediately before use. The assay solution which contained 40 μL AChE/BChE, 100 μL acetylthiocholine iodide/S-butyrylthiocholine iodide, 2.76 ml Na2HPO4/NaH2PO4 buffer (pH 8.0, 0.1 M), and 100 μL tested compound solution with different concentrations were incubated at 30 °C for 25 min. Then, the reaction was terminated with 100 μL 20% sodium dodecylsulphate (SDS), then 100 μL 10 mM […] (DTNB) as chromogenic agent was added into the mixture. […] The IC50 values were calculated by Bliss method and expressed as Mean ± SD of the replicates.

BChE = BChE (Homo sapiens, UniProt P06276); assay: biochemical; conditions: Ellman method, 30 °C, 25 min, pH 8.0; mean ± SD
Sequence of BChE (P06276 29-602): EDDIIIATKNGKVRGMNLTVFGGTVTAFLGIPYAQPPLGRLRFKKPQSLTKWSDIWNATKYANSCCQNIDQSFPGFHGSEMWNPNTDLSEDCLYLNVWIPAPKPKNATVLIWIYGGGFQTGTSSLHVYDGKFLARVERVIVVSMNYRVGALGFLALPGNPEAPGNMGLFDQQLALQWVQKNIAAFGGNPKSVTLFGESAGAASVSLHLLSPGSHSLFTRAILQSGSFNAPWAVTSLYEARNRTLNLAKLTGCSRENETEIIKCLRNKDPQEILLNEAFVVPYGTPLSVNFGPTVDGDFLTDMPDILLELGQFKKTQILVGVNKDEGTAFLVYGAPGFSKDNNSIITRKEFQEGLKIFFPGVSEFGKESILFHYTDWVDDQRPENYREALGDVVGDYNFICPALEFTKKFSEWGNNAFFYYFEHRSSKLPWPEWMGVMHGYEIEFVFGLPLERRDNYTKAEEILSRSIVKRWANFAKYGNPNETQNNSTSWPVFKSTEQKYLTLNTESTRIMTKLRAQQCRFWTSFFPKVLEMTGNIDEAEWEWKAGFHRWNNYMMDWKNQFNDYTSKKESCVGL
Description: as §1

[2] = Octanol/buffer partition coefficient by shake flask method; type: physicochemical; conditions: octanol/buffer (PBS) pH 7.4, shake-flask, 37 °C, HPLC; for logP: octanol/phosphate buffer solution (PBS)
Description: The aqueous phase was replaced by phosphate buffer solution (PBS, pH = 7.4). The assay mixture containing tested compounds was shaken at 37 °C over night and then centrifuged at 2000 rpm for 20 min, followed by the analysis with HPLC. […] Experiments were conducted in triplicate and log p values were calculated.

AChE [3] = biological target: T1, AChE; assay: Kinetic study of AChE inhibition (Lineweaver-Burk); type: biochemical
Description: Kinetic characterisation of AChE/BChE was performed by a modified method previous reported. Compound 7a was pre-incubated with the enzyme at 30 °C, then 100 µL acetylthiocholine iodide including five concentrations was added into the assay mixture and kinetic characterisation was conducted spectrometrically at 412 nm. Additionally, the parallel control experiment was made without compound 7a in the mixture.
Compound 7a was selected for kinetic studies. The linear Lineweaver–Burk equation of the Michaelis–Menten was applied to evaluate the inhibition profile. The analysis of the steady-state inhibition data of compound 7a was shown in Supplement data: Table 2.

T1 sequence (P22303 32-614): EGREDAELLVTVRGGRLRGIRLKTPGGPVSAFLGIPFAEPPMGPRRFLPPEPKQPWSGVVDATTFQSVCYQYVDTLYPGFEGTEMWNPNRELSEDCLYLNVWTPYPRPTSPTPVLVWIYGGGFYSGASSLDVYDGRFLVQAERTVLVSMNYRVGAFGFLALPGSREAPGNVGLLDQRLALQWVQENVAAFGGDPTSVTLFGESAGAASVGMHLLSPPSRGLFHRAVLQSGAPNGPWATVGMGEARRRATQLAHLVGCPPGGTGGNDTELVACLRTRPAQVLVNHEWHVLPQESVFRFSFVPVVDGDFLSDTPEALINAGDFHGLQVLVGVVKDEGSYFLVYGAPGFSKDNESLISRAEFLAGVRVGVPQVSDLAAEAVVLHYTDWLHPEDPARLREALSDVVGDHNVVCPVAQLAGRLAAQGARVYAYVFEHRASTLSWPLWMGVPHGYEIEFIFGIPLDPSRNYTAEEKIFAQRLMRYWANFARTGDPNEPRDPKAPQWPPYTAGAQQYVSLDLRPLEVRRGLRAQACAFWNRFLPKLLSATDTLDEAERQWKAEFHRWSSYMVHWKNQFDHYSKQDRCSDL

Compound	IC50 (AChE [1]) [µM]	Selectivity for AChE, IC50 (BChE)/IC50 (AChE) (AChE [1])	IC50 (BChE) [µM]	Log p [2]	logP [2]	Vmax (AChE [3]; AChE, 0.85 µM compound 7a)	Vmax (AChE [3]; AChE, 1.70 µM compound 7a)	Vmax (AChE [3]; AChE, 3.41 µM compound 7a)	non-competitive constant (Ki') (AChE [3]; AChE, Lineweaver-Burk analysis) [µM]	Ki (AChE [3]; AChE, Lineweaver-Burk analysis, read-out: competitive inhibition constant (Ki)) [µM]	type of inhibition against AChE (AChE [3]; Lineweaver-Burk analysis)
CN(C)CCOc1ccc(NC(=O)c2ccccc2)cc1 [Compound 4a]	18.2 ± 1.16	7.84	143 ± 5.56	1.12							
CN(C)CCOc1cccc(NC(=O)c2ccccc2)c1 [Compound 4b]	75.8 ± 4.13	0.276	20.9 ± 1.61		1.18						
CN(C)CCOc1ccccc1NC(=O)c1ccccc1 [Compound 4c]	> 500	<0.0359	18 ± 1		1.23						
CN(C)CCOc1ccc(NC(=O)c2ccncc2)cc1 [Compound 7a]	2.49 ± 0.19	99.4	247 ± 7.54		1.26	0.017 ΔAmin-1	0.014 ΔAmin-1	0.012 ΔAmin-1	3.28	4.69	mixed-type inhibition
CN(C)CCOc1cccc(NC(=O)c2ccncc2)c1 [Compound 7b]	38.4 ± 2.19	1.26	48.6 ± 2.23		1.31						
CN(C)CCOc1ccccc1NC(=O)c1ccncc1 [Compound 7c]	> 500	<0.0892	44.6 ± 1.16		1.37						
CN(C)CCOc1ccc(NC(=O)c2cccnc2)cc1 [Compound 7d]	5.76 ± 0.41	42.80	246.5 ± 1.85		1.33						
CN(C)CCOc1cccc(NC(=O)c2cccnc2)c1 [Compound 7e]	13.2 ± 1.73	1.67	22.1 ± 1.01		1.37						
CN(C)CCOc1ccccc1NC(=O)c1cccnc1 [Compound 7f]	75.8 ± 0.84	0.441	33.4 ± 1.37		1.42						
CN(C)CCOc1ccc(NC(=O)c2ccccn2)cc1 [Compound 7g]	4.68 ± 0.3	24.4	114 ± 7.73		1.14						
CN(C)CCOc1cccc(NC(=O)c2ccccn2)c1 [Compound 7h]	73 ± 3.03	0.492	35.9 ± 0.94		1.37						
CN(C)CCOc1ccccc1NC(=O)c1ccccn1 [Compound 7i]	> 500	<0.0549	27.4 ± 2.31		1.18						
